Measured values from patent publication US10155021B2, “Antimicrobial 4-oxoquinolizines” (Emergent Product Development Gaithersburg Inc., priority 2011, dated 2018).
Converted amounts (≈) assume the structure as drawn. Read-outs that look alike come from different tables or passages of the source.

Columns and labels:
A. baumannii A473 [1] = assay: Preliminary MBC without and with sub-inhibitory polymyxin B (Example 4); format: cell-based, Acinetobacter baumannii; conditions: Acinetobacter baumannii, A473, A. baumannii A473, without polymyxin B, read-out: MBC without PB
P. aeruginosa 143-3-03 = assay: MIC, panel of quinolone-resistant strains (CLSI); format: cell-based; conditions: Pseudomonas aeruginosa, 143303; CIP I, POL R
A. baumannii A472 [2] = assay: MIC without and with sub-inhibitory polymyxin B (Example 4); format: cell-based, Acinetobacter baumannii; conditions: Acinetobacter baumannii, A472, A. baumannii A472, without polymyxin B, read-out: MIC without PB
A. baumannii A489 [3] = assay: Preliminary MBC without and with sub-inhibitory polymyxin B (Example 4); format: cell-based, Acinetobacter baumannii; conditions: Acinetobacter baumannii, A489, A. baumannii A489, without polymyxin B, read-out: MBC without PB
Klebsiella ssp KPC-3 = assay: MIC, panel of quinolone-resistant strains (CLSI); format: cell-based, Klebsiella spp; conditions: KPC3, CIP R, ESBL
A. baumannii A472 [4] = assay: Preliminary MBC without and with sub-inhibitory polymyxin B (Example 4); format: cell-based, Acinetobacter baumannii; conditions: Acinetobacter baumannii, A472, A. baumannii A472, without polymyxin B, read-out: MBC without PB
[5] = test system: Acinetobacter sp. (H064200250); assay: as above; format: cell-based; conditions: Acinetobacter, without polymyxin B, preliminary MBC, read-out: MBC without PB
How it was run: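 Incubation 18-20 h, 37° C. MBC = lowest conc. with ~90% fewer colonies than positive control (single/no colonies).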

A. baumannii J2 [6] = assay: as above; format: cell-based, Acinetobacter baumannii; conditions: Acinetobacter baumannii, J2, A. baumannii J2, without polymyxin B, preliminary MBC, read-out: MBC without PB
A. baumannii A489 [7] = assay: MIC without and with sub-inhibitory polymyxin B (Example 4); format: cell-based, Acinetobacter baumannii; conditions: Acinetobacter baumannii, A489, A. baumannii A489, without polymyxin B, read-out: MIC without PB
A. baumannii A329 [8] = assay: MIC determination for Acinetobacter strains (Example 3); format: cell-based; conditions: LEV R, CIP R, MRP R, IMP R, AMK R, TET R
Pseudomonas ssp PER-1 = assay: MIC, panel of quinolone-resistant strains (CLSI); format: cell-based, Pseudomonas spp; conditions: PER1, CIP R, ESBL
A. baumannii A401 = assay: MIC without and with sub-inhibitory polymyxin B (Example 4); format: cell-based, Acinetobacter baumannii; conditions: for MIC: Acinetobacter baumannii, A401, A baumannii A 401, without polymyxin B, read-out: MIC without PB
[9] = test system: Acinetobacter sp. (H064200250); assay: as above; format: cell-based; conditions: Acinetobacter, without polymyxin B
A. baumannii A 401 = assay: MIC determination for Acinetobacter strains (Example 3); format: cell-based; conditions: A401, LEV R, CIP R, AMK R, TET R
[10] = test system: resistant strains of A. baumannii and one strain of Acinetobacter sp.; assay: MIC without and with sub-inhibitory polymyxin B, whole panel / MIC ranges (Example 4; also strains not listed separately); format: cell-based; conditions: Acinetobacter baumannii
E. coli CTX-M-15 = assay: MIC, panel of quinolone-resistant strains (CLSI); format: cell-based; conditions: Escherichia coli, CTXM15; CIP R, ESBL
P. aeruginosa 1388-3-02 = assay: MIC, panel of quinolone-resistant strains (CLSI); format: cell-based; conditions: Pseudomonas aeruginosa, 1388302; CIP R, POL R
A. baumannii A329 [11] = assay: MIC without and with sub-inhibitory polymyxin B (Example 4); format: cell-based, Acinetobacter baumannii; conditions: Acinetobacter baumannii, A329, A. baumannii A329, without polymyxin B, read-out: MIC without PB
E. coli 2906 = assay: MIC, panel of quinolone-resistant strains (CLSI); format: cell-based; conditions: Escherichia coli, CIP R
A. baumannii A390 = assay: Preliminary MBC without and with sub-inhibitory polymyxin B (Example 4); format: cell-based, Acinetobacter baumannii; conditions: Acinetobacter baumannii, A390, A. baumannii A390, without polymyxin B, preliminary MBC, read-out: MBC without PB
A. baumannii A473 [12] = assay: MIC without and with sub-inhibitory polymyxin B (Example 4); format: cell-based, Acinetobacter baumannii; conditions: Acinetobacter baumannii, A473, A. baumannii A473, without polymyxin B, read-out: MIC without PB
A. baumannii ATCC 19606 = assay: as above; format: cell-based, Acinetobacter baumannii; conditions: Acinetobacter baumannii, ATCC19606, A. baumannii ATCC 19606, without polymyxin B, read-out: MIC without PB
A. baumannii J2 [13] = assay: as above; format: cell-based, Acinetobacter baumannii; conditions: Acinetobacter baumannii, J2, A. baumannii J2, without polymyxin B, read-out: MIC without PB
A. baumannii A472 [14] = assay: MIC determination for Acinetobacter strains (Example 3); format: cell-based; conditions: LEV R, CIP R, MRP I, IMP I, AMK R, TET R
[15] = Acinetobacter spp. H064200250 (OXA51), 2nd experiment
[16] = Acinetobacter spp. H064200250, 1st experiment
[17] = Acinetobacter spp. H064200250 (OXA51), 2nd experiment, visual reading, read-out: MIC without PB
[18] = Acinetobacter spp. H064200250, 1st experiment, read-out: MIC without PB
[19] = read-out: MIC range without PB 01-10-2008 n = 8, without polymyxin B, 1st experiment, 8 strains
[20] = without polymyxin B, 2nd experiment, 11 strains, read-out: MIC range without PB 14-10-2008 n = 11

## Cc1c(-c2ccc(CN)c(F)c2)ccn2c(=O)c(C(=O)O)cc(C3CC3)c12 [Compound 4, 8-(3-fluoro-4-aminomethyl-phenyl)-1-cyclopropyl-9-methyl-4-oxo-quinolizine-3-carboxylic acid]
A. baumannii A473 [1]; 1st experiment
  MBC: 4 mg/L (≈ 10.9 µM)
P. aeruginosa 143-3-03
  MIC: 4 mg/L (≈ 10.9 µM)
A. baumannii A472 [2]; 2nd experiment, visual reading
  MIC: 16 mg/L (≈ 43.7 µM)
A. baumannii A489 [3]; 1st experiment
  MBC: 4 mg/L (≈ 10.9 µM)
A. baumannii A489 [3]; 2nd experiment
  MBC: 16 mg/L (≈ 43.7 µM)
Klebsiella ssp KPC-3
  MIC: 4 mg/L (≈ 10.9 µM)
A. baumannii A472 [4]; 2nd experiment
  MBC: 16 mg/L (≈ 43.7 µM)
[5]; [15]
  MBC: 32 mg/L (≈ 87.3 µM)
[5]; [16]
  MBC: 16 mg/L (≈ 43.7 µM)
A. baumannii J2 [6]; 2nd experiment
  MBC: 16 mg/L (≈ 43.7 µM)
A. baumannii J2 [6]; 1st experiment
  MBC: 4 mg/L (≈ 10.9 µM)
A. baumannii A489 [7]; 2nd experiment, visual reading
  MIC: 16 mg/L (≈ 43.7 µM)
A. baumannii A329 [8]
  MIC: 16 mg/L (≈ 43.7 µM)
Pseudomonas ssp PER-1
  MIC: 8 mg/L (≈ 21.8 µM)
A. baumannii A401; 1st experiment
  MIC: 16 mg/L (≈ 43.7 µM)
A. baumannii A401; 2nd experiment, visual reading
  MIC: 16 mg/L (≈ 43.7 µM)
[9]; Acinetobacter spp. H064200250 (OXA51), 2nd experiment, MIC read with alamar blue, read-out: MIC without PB, read with alamar blue
  MIC: 16 mg/L (≈ 43.7 µM)
[9]; [17]
  MIC: 32 mg/L (≈ 87.3 µM)
[9]; [18]
  MIC: 16 mg/L (≈ 43.7 µM)
A. baumannii A 401
  MIC: 16 mg/L (≈ 43.7 µM)
[10]; [19]
  MIC: 2 to 32 mg/L (≈ 5.46 to 87.3 µM)
[10]; [20]
  MIC: 4 to 16 mg/L (≈ 10.9 to 43.7 µM)
E. coli CTX-M-15
  MIC: 16 mg/L (≈ 43.7 µM)
P. aeruginosa 1388-3-02
  MIC: 16 mg/L (≈ 43.7 µM)
A. baumannii A329 [11]; 1st experiment
  MIC: 16 mg/L (≈ 43.7 µM)
A. baumannii A329 [11]; 2nd experiment, visual reading
  MIC: 16 mg/L (≈ 43.7 µM)
E. coli 2906
  MIC: 8 mg/L (≈ 21.8 µM)
A. baumannii A390; 2nd experiment
  MBC: 32 mg/L (≈ 87.3 µM)

## Cc1c(-c2ccc(N)c(F)c2)ccn2c(=O)c(C(=O)O)cc(C3CC3)c12 [Compound 1, 8-(3-fluoro-4-amino-phenyl)-1-cyclopropyl-9-methyl-4-oxo-quinolizine-3-carboxylic acid]
A. baumannii A473 [1]; 1st experiment
  MBC: 4 mg/L (≈ 11.4 µM)
A. baumannii A473 [1]; 2nd experiment
  MBC: 8 mg/L (≈ 22.7 µM)
A. baumannii A473 [12]; 1st experiment
  MIC: 4 mg/L (≈ 11.4 µM)
A. baumannii A473 [12]; 2nd experiment, visual reading
  MIC: 8 mg/L (≈ 22.7 µM)
A. baumannii A472 [2]; 1st experiment
  MIC: 8 mg/L (≈ 22.7 µM)
A. baumannii A472 [2]; 2nd experiment, visual reading
  MIC: 8 mg/L (≈ 22.7 µM)
A. baumannii A489 [3]; 1st experiment
  MBC: 8 mg/L (≈ 22.7 µM)
A. baumannii A489 [3]; 2nd experiment
  MBC: 16 mg/L (≈ 45.4 µM)
A. baumannii A472 [4]; 1st experiment
  MBC: 8 mg/L (≈ 22.7 µM)
[5]; [15]
  MBC: 32 mg/L (≈ 90.8 µM)
[5]; [16]
  MBC: 8 mg/L (≈ 22.7 µM)
A. baumannii J2 [6]; 2nd experiment
  MBC: 16 mg/L (≈ 45.4 µM)
A. baumannii J2 [6]; 1st experiment
  MBC: 8 mg/L (≈ 22.7 µM)
A. baumannii A489 [7]; 1st experiment
  MIC: 4 mg/L (≈ 11.4 µM)
A. baumannii A489 [7]; 2nd experiment, visual reading
  MIC: 16 mg/L (≈ 45.4 µM)
A. baumannii A329 [8]
  MIC: 16 mg/L (≈ 45.4 µM)
A. baumannii A401; A baumannii A 401, ratio MIC without PB to MIC + PB, PB 0.06 μg/ml, 2nd experiment
  MIC ratio without/with polymyxin B: ≥ 512 mg/L
A. baumannii A401; 1st experiment
  MIC: 4 mg/L (≈ 11.4 µM)
A. baumannii A401; 2nd experiment, visual reading
  MIC: 16 mg/L (≈ 45.4 µM)
[9]; [17]
  MIC: 16 mg/L (≈ 45.4 µM)
[9]; [18]
  MIC: 8 mg/L (≈ 22.7 µM)
A. baumannii ATCC 19606; 1st experiment
  MIC: 0.25 mg/L (≈ 0.709 µM)
A. baumannii ATCC 19606; 2nd experiment, visual reading
  MIC: 0.25 mg/L (≈ 0.709 µM)
A. baumannii A 401
  MIC: 4 mg/L (≈ 11.4 µM)
[10]; [19]
  MIC: 1 to 32 mg/L (≈ 2.84 to 90.8 µM)
[10]; [20]
  MIC: 4 to 32 mg/L (≈ 11.4 to 90.8 µM)
A. baumannii J2 [13]; 1st experiment
  MIC: 8 mg/L (≈ 22.7 µM)
A. baumannii J2 [13]; 2nd experiment, visual reading
  MIC: 16 mg/L (≈ 45.4 µM)
A. baumannii A329 [11]; 1st experiment
  MIC: 16 mg/L (≈ 45.4 µM)
A. baumannii A329 [11]; 2nd experiment, visual reading
  MIC: 16 mg/L (≈ 45.4 µM)
A. baumannii A472 [14]
  MIC: 8 mg/L (≈ 22.7 µM)
A. baumannii A390; 2nd experiment
  MBC: 16 mg/L (≈ 45.4 µM)
A. baumannii A390; 1st experiment
  MBC: 16 mg/L (≈ 45.4 µM)
